Data set [1] is described as follows: Solubility enhancement of astaxanthin in water solutions of the compounds (HPLC). The conditions noted are these: water solution containing 5 mg/mL of compound, excess astaxanthin (1 mg/mL), room temperature, 24 hours, 0.45 μm filter.
Procedure: The suspension was mixed using a laboratory shaker at room temperature for 24 hours. The concentration (mg/mL) of solubilized astaxanthin was determined by HPLC analysis. The sample was prepared for chromatographic analysis by filtering through a 0.45 μm MCE filter.
An X-Bridge™ Shield RP18 column (4.6×150 mm) was used. A suitable HPLC analytical method was developed for quantitating the amount of astaxanthin in solution.
The absorbance was monitored at 489 nm and the injection volume was 6 μL. In these chromatographic conditions, astaxanthin was eluted in about 4.0 minutes.
An appropriate dilution of each sample was made with dimethylsulfoxide, such that astaxanthin final concentration was within the linear portion of the standard curve, prior to injection onto the HPLC column.
The amount of astaxanthin in mg/mL was calculated by introducing the analyte peak area in the calibration curve fit-equation and multiplying the result by the dilution factor.
For data set [2] the following is noted: β-carotene alone; cited from earlier work.
Data set [3] can be described thus: Solubility enhancement of β-carotene in water solutions of the compounds (HPLC). The note with it: 5 mg/mL compound in water, excess β-carotene.
Procedure: The suspensions were left under stirring for 24 hours. Solutions A to N were obtained.
The suspensions were left under stirring for 24 hours. Solutions O to R were obtained.
An excess amount of β-carotene (5 mg/mL) was added to 1 mL of each solution A to R. The suspension was mixed using a laboratory shaker at room temperature for 24 hours. The concentration (mg/mL) of solubilized β-carotene was determined by HPLC analysis. The sample was prepared for chromatographic analysis by filtering through a 0.45 μm MCE filter.
An X-Bridge™ Shield RP18 column (4.6×150 mm) was used. A suitable HPLC analytical method was developed for quantitating the amount of drug in solution.
An appropriate dilution of each sample was made with dimethylsulfoxide, such that β-carotene final concentration was within the linear portion of the standard curve, prior to injection onto the HPLC column.
The amount of β-carotene in mg/mL was calculated by introducing the analyte peak area in the calibration curve fit-equation and multiplying the result by the dilution factor.

For the molecule `OC[C@H]1O[C@@H]2O[C@H]3[C@H](O)[C@@H](O)[C@@H](O[C@H]4[C@H](O)[C@@H](O)[C@@H](O[C@H]5[C@H](O)[C@@H](O)[C@@H](O[C@H]6[C@H](O)[C@@H](O)[C@@H](O[C@H]7[C@H](O)[C@@H](O)[C@@H](O[C@H]8[C@H](O)[C@@H](O)[C@@H](O[C@H]9[C@H](O)[C@@H](O)[C@@H](O[C@H]1[C@H](O)[C@H]2O)O[C@@H]9CO)O[C@@H]8CO)O[C@@H]7CO)O[C@@H]6CO)O[C@@H]5CO)O[C@@H]4CO)O[C@@H]3CO` [Compound 14, γ-cyclodextrin (CAVAMAX W8)], the “Aqueous solubility of astaxanthin in the presence of the compound” value (“Aqueous solubility of astaxanthin” below) in data set [1] was 1.2 µg/mL.

For `OC[C@H]1O[C@@H]2O[C@H]3[C@H](O)[C@@H](O)[C@@H](O[C@H]4[C@H](O)[C@@H](O)[C@@H](O[C@H]5[C@H](O)[C@@H](O)[C@@H](O[C@H]6[C@H](O)[C@@H](O)[C@@H](O[C@H]7[C@H](O)[C@@H](O)[C@@H](O[C@H]8[C@H](O)[C@@H](O)[C@@H](O[C@H]1[C@H](O)[C@H]2O)O[C@@H]8CO)O[C@@H]7CO)O[C@@H]6CO)O[C@@H]5CO)O[C@@H]4CO)O[C@@H]3CO` [Compound 15, β-cyclodextrin (CAVAMAX W7)], the “Aqueous solubility of astaxanthin” value in data set [1] is 0.5 µg/mL.

Take `CC1=C(/C=C/C(C)=C/C=C/C(C)=C/C=C/C=C(C)/C=C/C=C(C)/C=C/C2=C(C)CCCC2(C)C)C(C)(C)CCC1` [β-carotene]: the Water solubility entry in data set [2] was “below 1 mg/L”.

Take “HP-β-cyclodextrin (CAVASOL W7 HP) [Compound 16]”: the “Aqueous solubility of astaxanthin” value in data set [1] came out at 0.7 µg/mL. In addition, in data set [3], the “Visual aspect of the solution with β-carotene” value is “pale pink color”.

The record behind these values is patent US10662259B2, “Glycogen-based water solubility enhancers” (AZIENDE CHIMICHE RIUNITE ANGELINI FRANCESCO A.C.R.A.F. …, priority 2013, dated 2020).
